Measured values as given in patent US7291594B2 (Sanwa Kagaku Kenkyusho Co., Ltd., priority 2002, dated 2007).
Where no end group is shown, it is not given here.

What was measured:
[1] = tested on: mice; assay: Oral glucose tolerance test (OGTT) in mice after nasal administration of GLP-1 derivative; assay type: in vivo, mouse; set-up: Blood insulin level (5 minutes after glucose administration): unit not given here; conditions: for Blood glucose level (area under blood concentration-time curve (AUC0-20 min)) / Blood insulin level (5 minutes after glucose administration): average ± standard error
Description: That is, the GLP-1 derivative was administered via the nose into mice, and evaluated in an oral glucose tolerance test (OGTT) where a change in blood glucose level in the mice after tolerated with glucose was measured.
At the time of the test, the solution was diluted to a predetermined concentration with physiological saline.
(§1) Mice were anesthetized lightly with ether. […] The GLP-1 derivative solution was inhaled by breathing through the nose into the mouse.
The blood glucose level was determined by collecting several μl blood from a cut in the tail just before the test and 5, 10 and 20 minutes after glucose administration, and measuring the blood with a small blood-glucose-level measuring instrument (Glutest Ace, manufactured by Sanwa Kagaku Kenkyusho Co., Ltd.).
The blood insulin level was determined by collecting 75 μl blood from an orbital venous plexus with a heparin-treated glass capillary 5 minutes after administration of glucose, then centrifuging the blood and measuring plasma insulin by EIA (Levis Mouse Insulin Kit, manufactured by Shibayagi Co., Ltd.).

[2] = tested on: mice; assay: OGTT in mice after nasal administration, with or without charge-regulated fat emulsion; assay type: in vivo, mouse; set-up: unit not given here
Description: The charge-regulated fat emulsion used was prepared according to JP-A 8-27018; that is, a charge-regulated fat emulsion at a final concentration of 8% was obtained by using 2% (w/w) phosphatidyl glycerol (sodium salt), 8% (w/w) neutral oil and 90% (w/w) water.
50 μl of 8% charge-regulated fat emulsion was mixed with 3.56 μl of 1 mM 8S-GLP-1+5R solution and 146.4 μl distilled water to give 2% charge-regulated fat emulsion solution containing 8S-GLP-1+5R at a final concentration of 0.0178 mM.
as §1
The blood glucose level was determined by collecting several μl blood from a cut in the tail just before the test and 10, 20 and 30 minutes after glucose administration, and measuring glucose with a blood-glucose-level measuring instrument (Glutest Ace, manufactured by Sanwa Kagaku Kenkyusho Co., Ltd.).
The blood insulin level was determined by collecting 75 μl blood from an orbital venous plexus with a heparin-treated glass capillary 10 minutes after administration of glucose, then centrifuging the blood and measuring plasma insulin by EIA (Levis Mouse Insulin Kit, manufactured by Shibayagi Co., Ltd.).

[3] = tested on: mouse Langerhans islet; assay: Insulin secretion stimulating activity using mouse Langerhans islet; assay type: cell-based; conditions: 16.7 mM glucose
[4] = tested on: mice; assay: Blood glucose lowering activity in mice after subcutaneous administration and intravenous glucose; assay type: in vivo, mouse; conditions: for Blood sugar level 20 minutes after tolerance with glucose: 0.5 g/kg glucose i.v., mouse
[5] = molecular target: dipeptidyl peptidase IV (Homo sapiens, UniProt P27487); assay: Resistance to dipeptidyl peptidase IV (residual cAMP activity); assay type: in vitro ADME
Description: Thereafter, the sample was extracted with a 2-fold excess volume of ethanol, centrifuged and evaporated into dryness by an evaporator. The resulting dried product was dissolved in distilled water containing 1% BSA, and its cyclic AMP production activity was measured according to Test Example 1, to calculate the residual activity (%).

[6] = molecular target: T1, human GLP-1 receptor (Homo sapiens, UniProt P43220); assay: Cyclic AMP-producing activity in human GLP-1 receptor-expressing CHO-K1 cells; assay type: cell-based
T1 construct: expressed in transfected cells; host or cells: CHO-K1 (Chinese hamster ovary)
T1 sequence (P43220 24-463): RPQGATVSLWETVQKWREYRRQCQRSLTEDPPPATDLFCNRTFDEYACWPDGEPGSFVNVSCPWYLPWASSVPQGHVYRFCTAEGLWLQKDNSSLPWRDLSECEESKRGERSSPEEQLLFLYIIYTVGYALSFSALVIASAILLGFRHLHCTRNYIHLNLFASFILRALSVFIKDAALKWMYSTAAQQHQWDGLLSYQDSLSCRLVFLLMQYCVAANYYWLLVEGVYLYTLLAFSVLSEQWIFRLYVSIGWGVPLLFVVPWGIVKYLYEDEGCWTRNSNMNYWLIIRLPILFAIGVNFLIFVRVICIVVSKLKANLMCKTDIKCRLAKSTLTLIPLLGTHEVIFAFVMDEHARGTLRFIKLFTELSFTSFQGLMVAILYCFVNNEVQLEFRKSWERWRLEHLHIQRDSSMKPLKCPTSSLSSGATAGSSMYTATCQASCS
Description: 10 μl of 5 N hydrochloric acid was added to terminate the incubation.

Sequence of dipeptidyl peptidase IV (P27487 whole entry, species assumed): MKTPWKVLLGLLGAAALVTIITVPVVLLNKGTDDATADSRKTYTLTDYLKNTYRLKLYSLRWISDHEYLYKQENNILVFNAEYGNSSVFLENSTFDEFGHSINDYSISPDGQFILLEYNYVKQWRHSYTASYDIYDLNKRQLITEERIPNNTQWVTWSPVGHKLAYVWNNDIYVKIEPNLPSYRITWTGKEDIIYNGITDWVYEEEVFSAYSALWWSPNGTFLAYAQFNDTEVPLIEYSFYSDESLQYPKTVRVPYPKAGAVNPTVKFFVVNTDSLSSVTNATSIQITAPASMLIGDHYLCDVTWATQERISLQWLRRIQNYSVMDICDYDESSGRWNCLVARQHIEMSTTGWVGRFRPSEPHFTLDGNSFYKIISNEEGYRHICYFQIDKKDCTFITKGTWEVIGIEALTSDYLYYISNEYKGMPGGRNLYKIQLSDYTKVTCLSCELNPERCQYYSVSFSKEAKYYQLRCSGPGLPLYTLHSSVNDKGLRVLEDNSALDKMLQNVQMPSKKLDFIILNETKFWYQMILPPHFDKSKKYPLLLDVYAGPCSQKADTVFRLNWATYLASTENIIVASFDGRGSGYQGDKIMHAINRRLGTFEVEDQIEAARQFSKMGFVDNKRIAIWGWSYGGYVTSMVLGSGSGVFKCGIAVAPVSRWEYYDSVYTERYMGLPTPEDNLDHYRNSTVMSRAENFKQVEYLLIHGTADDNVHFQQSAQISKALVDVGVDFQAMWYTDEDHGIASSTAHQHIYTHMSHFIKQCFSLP

[Ser^8]-GLP-1 (7-35)-Lys-Lys-Lys-Lys-Lys-Lys-Lys-Arg-NH2 (HSEGTFTSDVSSYLEGQAAKEFIAWLVKGKKKKKKKR-NH2) [8S, des36R-GLP-1 + 7KR]
Blood glucose level (area under blood concentration-time curve (AUC0-20 min)) ([1]; 1.07 nmol/mouse): 457 ± 69 mg·min/dL | Blood insulin level (5 minutes after glucose administration) ([1]; 1.07 nmol/mouse): 1604 ± 344

[Ser^8]-GLP-1 (7-35)-Arg-Arg-Arg-Arg-Arg-Arg-Arg-Arg-Arg-NH2 (HSEGTFTSDVSSYLEGQAAKEFIAWLVKGRRRRRRRRR-NH2) [8S-GLP-1 + 8R]
Blood glucose level (area under blood concentration-time curve (AUC0-20 min)) ([1]; 1.07 nmol/mouse): 487 ± 32 mg·min/dL | Blood insulin level (5 minutes after glucose administration) ([1]; 1.07 nmol/mouse): 1882 ± 402

[Ser^8]-GLP-1 (7-35)-Lys-Lys-Lys-Lys-Lys-Arg-NH2 (HSEGTFTSDVSSYLEGQAAKEFIAWLVKGKKKKKR-NH2) [8S, des36R-GLP-1 + 5KR]
blood glucose depressing action (in words) [1]: strongest blood glucose depressing action | Blood glucose level (area under blood concentration-time curve (AUC0-20 min)) ([1]; 1.07 nmol/mouse): 404 ± 71 mg·min/dL | Blood insulin level (5 minutes after glucose administration) ([1]; 1.07 nmol/mouse): 2229 ± 346

[Ser^8]-GLP-1 (7-35)-Lys-Lys-Arg-NH2 (HSEGTFTSDVSSYLEGQAAKEFIAWLVKGKKR-NH2) [8S, des36R-GLP-1 + 2KR]
Blood glucose level (area under blood concentration-time curve (AUC0-20 min)) ([1]; 1.07 nmol/mouse): 564 ± 52 mg·min/dL | Blood insulin level (5 minutes after glucose administration) ([1]; 1.07 nmol/mouse): 1243 ± 309

[Ser^8]-GLP-1 (7-35)-Lys-Lys-Lys-Arg-NH2 (HSEGTFTSDVSSYLEGQAAKEFIAWLVKGKKKR-NH2) [8S, des36R-GLP-1 + 3KR]
Blood glucose level (area under blood concentration-time curve (AUC0-20 min)) ([1]; 1.07 nmol/mouse): 557 ± 53 mg·min/dL | Blood insulin level (5 minutes after glucose administration) ([1]; 1.07 nmol/mouse): 1176 ± 233

[Ser^8]-GLP-1 (7-35)-Arg-Arg-Arg-Arg-Arg-NH2 (HSEGTFTSDVSSYLEGQAAKEFIAWLVKGRRRRR-NH2) [8S-GLP-1 + 4R]
blood glucose depressing action (in words) [1]: strongest blood glucose depressing action | Blood glucose level (area under blood concentration-time curve (AUC0-20 min)) ([1]; 1.07 nmol/mouse): 388 ± 54 mg·min/dL | Blood insulin level (5 minutes after glucose administration) ([1]; 1.07 nmol/mouse): 1713 ± 430

[Ser^8]-GLP-1 (7-35)-Lys-Arg-NH2 (HSEGTFTSDVSSYLEGQAAKEFIAWLVKGKR-NH2) [8S, des36R-GLP-1 + 1KR]
Blood glucose level (area under blood concentration-time curve (AUC0-20 min)) ([1]; 1.07 nmol/mouse): 611 ± 51 mg·min/dL | Blood insulin level (5 minutes after glucose administration) ([1]; 1.07 nmol/mouse): 1349 ± 244

[Ser^8]-GLP-1 (7-35)-Arg-Lys-Lys-NH2 (HSEGTFTSDVSSYLEGQAAKEFIAWLVKGRKK-NH2) [8S-GLP-1 + 2K]
Blood glucose level (area under blood concentration-time curve (AUC0-20 min)) ([1]; 1.07 nmol/mouse): 598 ± 63 mg·min/dL | Blood insulin level (5 minutes after glucose administration) ([1]; 1.07 nmol/mouse): 862 ± 150

[Ser^8]-GLP-1 (7-35)-Lys-Lys-Lys-Lys-Lys-Lys-Lys-Lys-Lys-Lys-Arg-NH2 (HSEGTFTSDVSSYLEGQAAKEFIAWLVKGKKKKKKKKKKR-NH2) [8S, des36R-GLP-1 + 10KR]
Blood glucose level (area under blood concentration-time curve (AUC0-20 min)) ([1]; 1.07 nmol/mouse): 492 ± 106 mg·min/dL | Blood insulin level (5 minutes after glucose administration) ([1]; 1.07 nmol/mouse): 2379 ± 520

[Ser^8]-GLP-1 (7-35)-Arg-Arg-Arg-Arg-NH2 (HSEGTFTSDVSSYLEGQAAKEFIAWLVKGRRRR-NH2) [8S-GLP-1 + 3R]
Blood glucose level (area under blood concentration-time curve (AUC0-20 min)) ([1]; 1.07 nmol/mouse): 509 ± 92 mg·min/dL | Blood insulin level (5 minutes after glucose administration) ([1]; 1.07 nmol/mouse): 1359 ± 318

GLP-1 (7-36)—NH2 [reference compound]
Blood glucose level (area under blood concentration-time curve (AUC0-20 min)) ([1]; 1.07 nmol/mouse): 697 ± 94 mg·min/dL | Blood insulin level (5 minutes after glucose administration) ([1]; 1.07 nmol/mouse): 662 ± 91 | Blood glucose level (area under blood concentration-time curve (AUC0-20 min)) ([1]; 10.7 nmol/mouse): 399 ± 35 mg·min/dL | Blood insulin level (5 minutes after glucose administration) ([1]; 10.7 nmol/mouse): 743 ± 147 | Blood insulin level (10 minutes after glucose administration) ([2]; 10.7 nmol/mouse, without charge-regulated fat emulsion): 377 ± 41 | Amount of insulin secreted ([3]; assay concentration −8 log M): 6.71 ng/islet/30 min | Amount of insulin secreted ([3]; assay concentration −9 log M): 5.11 ng/islet/30 min | Amount of insulin secreted ([3]; assay concentration −10 log M): 4.11 ng/islet/30 min | Blood sugar level 20 minutes after tolerance with glucose ([4]; 5 μg/kg): 119 mg/dL | Blood sugar level 20 minutes after tolerance with glucose ([4]; 10 μg/kg): 103 mg/dL | Blood sugar level 20 minutes after tolerance with glucose ([4]; 20 μg/kg): 75 mg/dL | Residual activity (%) ([5]; DPP IV + (40 μU/μl, 37° C., 60 minutes)): 25% | Residual activity (%) ([5]; DPP IV −(not treated)): 100%

[Ser^8]-GLP-1 (7-35)-Arg-Arg-Arg-Arg-Arg-Arg-Arg-NH2 (HSEGTFTSDVSSYLEGQAAKEFIAWLVKGRRRRRRR-NH2) [8S-GLP-1 + 6R]
Blood glucose level (area under blood concentration-time curve (AUC0-20 min)) ([1]; 1.07 nmol/mouse): 559 ± 27 mg·min/dL | Blood insulin level (5 minutes after glucose administration) ([1]; 1.07 nmol/mouse): 1633 ± 449

[Ser^8]-GLP-1 (7-35)-Arg-Arg-Arg-Arg-Arg-Arg-NH2 (HSEGTFTSDVSSYLEGQAAKEFIAWLVKGRRRRRR-NH2) [8S-GLP-1 + 5R]
Blood glucose level (area under blood concentration-time curve (AUC0-20 min)) ([1]; 1.07 nmol/mouse): 483 ± 26 mg·min/dL | Blood insulin level (5 minutes after glucose administration) ([1]; 1.07 nmol/mouse): 1504 ± 250 | Blood insulin level (10 minutes after glucose administration) ([2]; 0.357 nmol/mouse, used in combination with 2% charge-regulated fat emulsion): 560 ± 81 | Blood insulin level (10 minutes after glucose administration) ([2]; 0.357 nmol/mouse, without charge-regulated fat emulsion): 506 ± 34

[Ser^8, Gln^26, Asn^34]-GLP-1 (7-35)-Arg (HSEGTFTSDVSSYLEGQAAQEFIAWLVNGR; ends and bridges not checked) [8S26Q34N-GLP-1]
in vitro activity of producing cyclic AMP (in words) [6]: the activity was maintained | Amount of cAMP produced ([6]; concentration −8 log M): 79.2 pmol/10^5 cell/30 min | Amount of cAMP produced ([6]; concentration −9 log M): 76.1 pmol/10^5 cell/30 min | Amount of cAMP produced ([6]; concentration −10 log M): 24.2 pmol/10^5 cell/30 min | Amount of cAMP produced ([6]; concentration −11 log M): 4.7 pmol/10^5 cell/30 min | Amount of cAMP produced ([6]; concentration −12 log M): 0.6 pmol/10^5 cell/30 min | insulin secretion stimulating activity compared with naturally occurring GLP-1 (in words) ([3]; 30 minutes): stronger insulin secretion stimulating activity than that of the naturally occurring GLP-1 | Amount of insulin secreted ([3]; assay concentration −8 log M): 9.85 ng/islet/30 min | Amount of insulin secreted ([3]; assay concentration −9 log M): 6.61 ng/islet/30 min | Amount of insulin secreted ([3]; assay concentration −10 log M): 3.64 ng/islet/30 min | blood glucose lowering activity in mice (in words) [4]: concentration-dependent depression in blood glucose level | Blood sugar level 20 minutes after tolerance with glucose ([4]; 5 μg/kg): 110 mg/dL | Blood sugar level 20 minutes after tolerance with glucose ([4]; 10 μg/kg): 95 mg/dL | Blood sugar level 20 minutes after tolerance with glucose ([4]; 20 μg/kg): 21 mg/dL

[Ser^8]-GLP-1 (7-35)-Arg-Arg-Arg-NH2 (HSEGTFTSDVSSYLEGQAAKEFIAWLVKGRRR-NH2) [8S-GLP-1 + 2R]
Blood glucose level (area under blood concentration-time curve (AUC0-20 min)) ([1]; 1.07 nmol/mouse): 535 ± 58 mg·min/dL | Blood insulin level (5 minutes after glucose administration) ([1]; 1.07 nmol/mouse): 957 ± 86
